Experimental findings from paper PMC9841525, “Chemical Blockage of the Mitochondrial Rhomboid Protease PARL by Novel Ketoamide Inhibitors Reveals Its Role in PINK1/Parkin-Dependent Mitophagy” (Journal of Medicinal Chemistry, 2022) are described below.

For test [1], the target named is T1, PARL (Homo sapiens, UniProt Q9H300).
T1 sequence (Q9H300 53-379): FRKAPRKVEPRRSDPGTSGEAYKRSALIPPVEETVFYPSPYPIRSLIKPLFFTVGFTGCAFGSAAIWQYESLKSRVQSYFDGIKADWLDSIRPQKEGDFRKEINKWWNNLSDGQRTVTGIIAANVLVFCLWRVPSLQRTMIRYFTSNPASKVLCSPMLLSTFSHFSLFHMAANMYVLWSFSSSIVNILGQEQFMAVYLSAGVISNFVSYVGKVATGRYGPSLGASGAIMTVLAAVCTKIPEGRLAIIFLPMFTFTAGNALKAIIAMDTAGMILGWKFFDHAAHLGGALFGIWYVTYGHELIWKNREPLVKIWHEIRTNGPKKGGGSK
The experiment in a line: CCCP-induced PGAM5-FLAG cleavage by endogenous PARL in HEK293T cells, immunoblot. The class given is cell-based. Further details: expressed in transfected cells; host or cells: Flp-In HEK293 T-REx PARL knockout cells. The settings on record: 3 h, mean ± SEM of four experiments, read-out: Apparent IC50, CCCP-induced PGAM5 cleavage. The procedure:
Inducible stable Flp-In HEK293 T-REx cells expressing PINK1 were described previously.[33] HEK293 T-REx PINK1 and HEK293T cells were grown in DMEM (Gibco) supplemented with 10% (v/v) fetal bovine serum (ThermoFisher), 1% (v/v) GlutaMAX (Gibco), 1% (v/v) sodium pyruvate (Gibco), 125 μg/mL hygromycin (Invitrogen), and 10 μg/mL blasticidin (Gibco) or DMEM supplemented with 10% (v/v) fetal bovine serum, respectively, at 37 °C in 5% (v/v) CO2. For microscopy, cells were seeded on poly-L-lysine (Sigma)-coated slides. Transient plasmid transfections were performed using 25 kDa linear polyethylenimine (Polysciences). Plasmid (100 ng) encoding HA-Parkin-IRES-GFP, mito-mCherry or Parkin-mEGFP, or 500 ng plasmid encoding PGAM5-FLAG were used per 6-well. Total transfected DNA was 2 μg/well. For siRNA transfection, 2 × 10^5 cells were seeded per 6-well and on the next day transfected with 20 nM siRNA-oligonucleotide using lipofectamine RNAiMAX (ThermoFisher). Cells were analyzed 27 h post-transfection or five days post-siRNA-transfection. HEK293 T-REx PINK1 cells were induced with 0.3 μg/mL doxycycline for 24 h before further processing. […] For quantification, ImageJ was used (http://rsb.info.nih.gov/ij/). Immunoblots shown are representative of at least three independent experiments and were evaluated using Excel and GraphPad Prism 9 (GraphPad Software, Inc.).
In general terms: In western blotting, separated proteins are transferred to a membrane and probed.

Test [2] addresses T1, PARL. The experiment in a line: PARL inhibition in vitro, PARL in liposomes with substrate compound 4. The class given is biochemical. Further details: hexahistidine tag (C); made in house; host or cells: continuous-exchange cell-free expression in bacterial lysates with T7 polymerase (CUBE biotech), into liposomes. On the procedure: Liposome preparation and cell-free protein expression of PARL were carried out essentially as described previously.[27] Liposomes resembling the lipid composition of the IMM were prepared by mixing 40% DOPC (1,2-dioleoyl-sn-glycero-3-phosphocholine), 33.8% DOPE (1,2-dioleoyl-sn-glycero-3-phosphoethanolamine), 18% CL(18:1)4 (1′,3′-bis[1,2-dioleyl-sn-glycero-3-phospho]-glycerol), 3% DOPS (1,2-dioleoyl-sn-glycero-3-phospho-L-serine), 5% soy-PI (L-α-phosphatidylinositol), and 0.2% rhodamine-PE (1,2-dioleoyl-sn-glycero-3-phosphoethanolamine-N-(lissamine rhodamine B sulfonyl)) in chloroform, followed by the evaporation of chloroform by a stream of nitrogen gas and drying in a vacuum chamber (Binder) for 1 h. Dried lipids were dissolved in buffer (5 mM Tris/HCl, pH 8.5, 10 mM KOAc) and extruded 21 times through a mini extruder (Avanti Polar Lipids) using a polycarbonate membrane with a pore size of […]. […] The PARL-containing liposomes were purified by a step-wise sucrose step-gradient centrifugation (0, 15, 30, and 40% sucrose in 5 mM HEPES pH 7.5 with 25 mM NaCl) for 2 h at 200,000 × g. Soluble proteoliposomes were harvested at the 0%/15% sucrose interface after the centrifugation. Concentration of PARL was determined by absorption at 280 nm.
PARL inhibition in vitro was measured in 5 mM Tris, 5 mM Mg(OAc)2, 25 μM Zn(OAc)2, 0.1 μg/μL BSA, 10% DMSO, pH 8.0 using PARL in liposomes at 0.07 mg/mL and compound 4 at 100 μM final concentration. Inhibitor concentrations were determined by quantitative amino acid analysis. Inhibitors in DMSO were dissolved at the respective concentrations into the reaction buffer by vigorous mixing at 1000 rpm, 37 °C for 40 min and then pre-incubated with PARL in liposomes at 37° for 1 h. The cleavage reaction was started by adding compound 4 and carried out at 37 °C in 96-well black HTS plates (Greiner Bio-One). Fluorescence was read in a plate reader (Tecan Infinite M1000) with excitation and emission wavelengths set to 355 and 450 nm, respectively. Data were evaluated using Excel (Microsoft) and GraphPad Prism 9 (GraphPad Software, Inc.). The data shown are representative of at least three independent experiments.

*1 amine or outer side, *2 acyl side, *3 side chain or, on linkers, in order; H or OH if unused. Where a SMILES comes first, the peptide text is derived from it. [ ]: non-standard residue; d: D form. The star is where a group is joined. NH(4-phenylbutyl) = c1ccc(CCCCN*)cc1; X1 = C[C@H](N[*:1])C(=O)C(=O)[*:2]

`CC(=O)N[C@@H](C)C(=O)N[C@H](C(=O)N[C@@H](Cc1ccccc1)C(=O)N[C@@H](CC(C)C)C(=O)N[C@@H](C)C(=O)C(=O)NCCCCc1ccccc1)C(C)C` [compound 5] (Ac-AVFL[X1]-{NH(4-phenylbutyl)}): the IC50 (commonly the concentration that inhibits the measured activity by half) in test [1] is 0.15 µM; in test [2] (recombinant mature PARL in liposomes, 100 μM substrate compound 4, mean ± SEM of three or four measurements), 0.028 µM. Also, in test [2] (ratio of IC50 values, compound 5 vs compound 6), the “Fold better than compound 6 in vitro” value is “about 3 fold”.
